Measurements published in PubChem BioAssay (NCI).
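Interpolation was linear, between the two tested concentrations surrounding the appropriate level; five concentrations were tested over 48 hours in 96-well plates. TGI: concentration producing complete growth inhibition.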

Assays:
Assay in all cases: NCI anticancer screen, dose series, 48 h
HCT-15 colon = tested on: HCT-15 colon
SNB-19 CNS = tested on: SNB-19 CNS
OVCAR-3 ovarian = tested on: OVCAR-3 ovarian
SK-MEL-28 melanoma = tested on: SK-MEL-28 melanoma
MDA-N = tested on: MDA-N
NCI-H23 lung = tested on: NCI-H23 lung
RPMI-8226 leukemia = tested on: RPMI-8226 leukemia
NCI-H460 lung = tested on: NCI-H460 lung
TK-10 renal = tested on: TK-10 renal
OVCAR-4 ovarian = tested on: OVCAR-4 ovarian
LOX IMVI melanoma = tested on: LOX IMVI melanoma
SW-620 colon = tested on: SW-620 colon
SNB-75 CNS = tested on: SNB-75 CNS
UACC-257 melanoma = tested on: UACC-257 melanoma
MCF7 breast = tested on: MCF7 breast
RXF 393 renal = tested on: RXF 393 renal
PC-3 prostate = tested on: PC-3 prostate
OVCAR-5 ovarian = tested on: OVCAR-5 ovarian
MALME-3M melanoma = tested on: MALME-3M melanoma
EKVX NSCLC = tested on: EKVX NSCLC
KM12 colon = tested on: KM12 colon
A498 renal = tested on: A498 renal
UO-31 renal = tested on: UO-31 renal
HCT-116 colon = tested on: HCT-116 colon
IGROV1 ovarian = tested on: IGROV1 ovarian
SK-OV-3 ovarian = tested on: SK-OV-3 ovarian
K-562 leukemia = tested on: K-562 leukemia
BT-549 breast = tested on: BT-549 breast
CAKI-1 renal = tested on: CAKI-1 renal
A549 NSCLC = tested on: A549 NSCLC
NCI/ADR-RES ovarian = tested on: NCI/ADR-RES ovarian
MOLT-4 leukemia = tested on: MOLT-4 leukemia
NCI-H522 lung = tested on: NCI-H522 lung
MDA-MB-231 breast = tested on: MDA-MB-231 breast
ACHN renal = tested on: ACHN renal
SF-295 CNS = tested on: SF-295 CNS
SN12C renal = tested on: SN12C renal
SK-MEL-2 melanoma = tested on: SK-MEL-2 melanoma
HOP-62 NSCLC = tested on: HOP-62 NSCLC
HOP-92 NSCLC = tested on: HOP-92 NSCLC
SF-268 CNS = tested on: SF-268 CNS
T-47D breast = tested on: T-47D breast
786-0 renal = tested on: 786-0 renal
M14 melanoma = tested on: M14 melanoma
SK-MEL-5 melanoma = tested on: SK-MEL-5 melanoma
NCI-H226 lung = tested on: NCI-H226 lung
DU-145 prostate = tested on: DU-145 prostate
MDA-MB-435 = tested on: MDA-MB-435
CCRF-CEM leukemia = tested on: CCRF-CEM leukemia
SR leukemia = tested on: SR leukemia
SF-539 CNS = tested on: SF-539 CNS
HS 578T breast = tested on: HS 578T breast
HL-60(TB) leukemia = tested on: HL-60(TB) leukemia
U251 CNS = tested on: U251 CNS
OVCAR-8 ovarian = tested on: OVCAR-8 ovarian
HT29 colon = tested on: HT29 colon
COLO 205 colon = tested on: COLO 205 colon
UACC-62 melanoma = tested on: UACC-62 melanoma

## COc1ccccc1-c1nc[nH]c1-c1ccccc1OC
HCT-15 colon
  TGI: > 100 µM
SNB-19 CNS
  TGI: > 100 µM
OVCAR-3 ovarian
  TGI: > 100 µM
SK-MEL-28 melanoma
  TGI: > 100 µM
MDA-N
  TGI: 34.9 µM
NCI-H23 lung
  TGI: > 100 µM
RPMI-8226 leukemia
  TGI: > 100 µM
NCI-H460 lung
  TGI: > 100 µM
TK-10 renal
  TGI: > 100 µM
OVCAR-4 ovarian
  TGI: > 100 µM
LOX IMVI melanoma
  TGI: 41.7 µM
SW-620 colon
  TGI: > 100 µM
SNB-75 CNS
  TGI: 60.7 µM
UACC-257 melanoma
  TGI: > 100 µM
MCF7 breast
  TGI: > 100 µM
RXF 393 renal
  TGI: 87.1 µM
PC-3 prostate
  TGI: > 100 µM
OVCAR-5 ovarian
  TGI: > 100 µM
MALME-3M melanoma
  TGI: 52.9 µM
EKVX NSCLC
  TGI: > 100 µM
KM12 colon
  TGI: 28.3 µM
A498 renal
  TGI: > 100 µM
UO-31 renal
  TGI: > 100 µM
HCT-116 colon
  TGI: > 100 µM
IGROV1 ovarian
  TGI: > 100 µM
SK-OV-3 ovarian
  TGI: > 100 µM
K-562 leukemia
  TGI: 65 µM
BT-549 breast
  TGI: > 100 µM
CAKI-1 renal
  TGI: > 100 µM
A549 NSCLC
  TGI: > 100 µM
NCI/ADR-RES ovarian
  TGI: 61.8 µM
MOLT-4 leukemia
  TGI: > 100 µM
NCI-H522 lung
  TGI: 42.1 µM
MDA-MB-231 breast
  TGI: > 100 µM
ACHN renal
  TGI: > 100 µM
SF-295 CNS
  TGI: 97.9 µM
SN12C renal
  TGI: > 100 µM
SK-MEL-2 melanoma
  TGI: > 100 µM
HOP-62 NSCLC
  TGI: > 100 µM
HOP-92 NSCLC
  TGI: > 100 µM
SF-268 CNS
  TGI: 65.3 µM
T-47D breast
  TGI: > 100 µM
786-0 renal
  TGI: > 100 µM
M14 melanoma
  TGI: 78.3 µM

## O=C(Nc1ccc(-c2cn3ccccc3n2)cc1)c1cc(Br)ccc1O
HCT-15 colon
  TGI: > 100 µM
SNB-19 CNS
  TGI: > 100 µM
SK-MEL-5 melanoma
  TGI: > 100 µM
NCI-H226 lung
  TGI: > 100 µM
OVCAR-3 ovarian
  TGI: > 100 µM
SK-MEL-28 melanoma
  TGI: > 100 µM
MDA-N
  TGI: > 100 µM
NCI-H23 lung
  TGI: > 100 µM
RPMI-8226 leukemia
  TGI: > 100 µM
NCI-H460 lung
  TGI: > 100 µM
TK-10 renal
  TGI: > 100 µM
OVCAR-4 ovarian
  TGI: > 100 µM
LOX IMVI melanoma
  TGI: > 100 µM
DU-145 prostate
  TGI: > 100 µM
SW-620 colon
  TGI: > 100 µM
SNB-75 CNS
  TGI: > 100 µM
UACC-257 melanoma
  TGI: > 100 µM
MCF7 breast
  TGI: > 100 µM
MDA-MB-435
  TGI: > 100 µM
RXF 393 renal
  TGI: > 100 µM
PC-3 prostate
  TGI: > 100 µM
OVCAR-5 ovarian
  TGI: > 100 µM
CCRF-CEM leukemia
  TGI: > 100 µM
SR leukemia
  TGI: > 100 µM
MALME-3M melanoma
  TGI: > 100 µM
SF-539 CNS
  TGI: > 100 µM
EKVX NSCLC
  TGI: > 100 µM
KM12 colon
  TGI: > 100 µM
HS 578T breast
  TGI: > 100 µM
HL-60(TB) leukemia
  TGI: > 100 µM
A498 renal
  TGI: > 100 µM
HCT-116 colon
  TGI: > 100 µM
U251 CNS
  TGI: > 100 µM
IGROV1 ovarian
  TGI: > 100 µM
SK-OV-3 ovarian
  TGI: > 100 µM
K-562 leukemia
  TGI: > 100 µM
OVCAR-8 ovarian
  TGI: > 100 µM
BT-549 breast
  TGI: > 100 µM
CAKI-1 renal
  TGI: > 100 µM
A549 NSCLC
  TGI: > 100 µM
HT29 colon
  TGI: > 100 µM
NCI/ADR-RES ovarian
  TGI: > 100 µM
MOLT-4 leukemia
  TGI: > 100 µM
COLO 205 colon
  TGI: > 100 µM
NCI-H522 lung
  TGI: > 100 µM
UACC-62 melanoma
  TGI: > 100 µM
MDA-MB-231 breast
  TGI: > 100 µM
ACHN renal
  TGI: > 100 µM
SF-295 CNS
  TGI: > 100 µM
SN12C renal
  TGI: > 100 µM
SK-MEL-2 melanoma
  TGI: > 100 µM
HOP-62 NSCLC
  TGI: > 100 µM
HOP-92 NSCLC
  TGI: > 100 µM
SF-268 CNS
  TGI: > 100 µM
T-47D breast
  TGI: > 100 µM
786-0 renal
  TGI: > 100 µM
M14 melanoma
  TGI: > 100 µM
